Data set [1] concerns Jurkat cells. As to the kind of experiment: MTS cell viability assay, Jurkat. In kind it is cell-based, human. The conditions noted are these: 72 hours, read-out: IC50 (± S.D.), Jurkat. On the procedure: Cryopreserved tumor cells obtained from sterile lymph node biopsy samples from dogs with diffuse large B cell lymphoma (DLBCL) were cultured with 100 ng/mL of megaCD40L (Enzo Life Science, Plymouth Meeting, PA) as previously described, [27]. The human T-cell leukemia cell line, Jurkat, was from the American Type Culture Collection (ATCC, Manassas, VA) and cultured in RPMI1640 medium (Gibco/BRL, Grand Island, NY) containing 10% fetal bovine serum (FBS; Atlas Biologicals, Fort Collins, CO), 2-mercaptoethanol (Gibco/BRL), HEPES, L-glutamine, sodium pyruvate (Mediatech Inc., Manassas, VA), non-essential amino acids (Sigma Aldrich, St. Louis, MO), and Primocin (Invivogen, San Diego, CA). The canine DLBCL cell line CLBL1 obtained from Dr. Barbara Rütgen (University of Vienna, Austria), [29] and human DLBCL cell lines OCI-Ly3 [30], [31] and OCI-Ly10 [32] obtained from Dr. Anne Novak (Mayo Clinic Cancer Center, Rochester, MN) were cultured in complete Iscove’s Modified Dulbecco’s medium (IMDM) containing 20% FBS, L-glutamine, and Primocin. All cells were maintained at 37°C in a humidified 5% CO2 atmosphere. The following additional canine tumor cell lines were used to evaluate response to SINE compounds: C2, mast cell tumor line provided by Dr. George Caughey, UCSF, San Francisco, CA [33]; OSA16, osteosarcoma cell line, provided by Dr. Jaime Modiano, UM, Minneapolis, MN [34]; and 323610-3, malignant melanoma cell line, provided by Dr. Michael Kent, UCD, Davis, CA [35]. […]
(§1) Cell viability for lymphoid lines was determined by the MTS (3-(4, 5-dimethylthiazol-2-yl)-5-(3-carboxymethoxyphenyl)-2-(4-sulfophenyl)-2H-tetrazolium) assay using CellTiter 96® AQueous One Solution Cell Proliferation Assay Kit (Promega, Madison, WI). […] After 72 hours, 20 µL of MTS solution was added to each well and cells were incubated for another 4 hours before measuring absorbance at 490 nm using a Wallac Victor 1420 Multilabel Counter (Perkin Elmer, Waltham, MA). The IC50 of SINE was calculated using Prism 6 software (GraphPad Software, Inc., La Jolla, CA).
(Tetrazolium dyes change colour on reduction, which living cells bring about.)

Data set [2] deals with primary canine DLBCL cells. As to the kind of experiment: MTS cell viability assay, primary canine DLBCL samples. It counts as cell-based. On the procedure: Cryopreserved tumor cells obtained from sterile lymph node biopsy samples from dogs with diffuse large B cell lymphoma (DLBCL) were cultured with 100 ng/mL of megaCD40L (Enzo Life Science, Plymouth Meeting, PA) as previously described, [27]. The human T-cell leukemia cell line, Jurkat, was from the American Type Culture Collection (ATCC, Manassas, VA) and cultured in RPMI1640 medium (Gibco/BRL, Grand Island, NY) containing 10% fetal bovine serum (FBS; Atlas Biologicals, Fort Collins, CO), 2-mercaptoethanol (Gibco/BRL), HEPES, L-glutamine, sodium pyruvate (Mediatech Inc., Manassas, VA), non-essential amino acids (Sigma Aldrich, St. Louis, MO), and Primocin (Invivogen, San Diego, CA). The canine DLBCL cell line CLBL1 obtained from Dr. Barbara Rütgen (University of Vienna, Austria), [29] and human DLBCL cell lines OCI-Ly3 [30], [31] and OCI-Ly10 [32] obtained from Dr. Anne Novak (Mayo Clinic Cancer Center, Rochester, MN) were cultured in complete Iscove’s Modified Dulbecco’s medium (IMDM) containing 20% FBS, L-glutamine, and Primocin. All cells were maintained at 37°C in a humidified 5% CO2 atmosphere. The following additional canine tumor cell lines were used to evaluate response to SINE compounds: C2, mast cell tumor line provided by Dr. George Caughey, UCSF, San Francisco, CA [33]; OSA16, osteosarcoma cell line, provided by Dr. Jaime Modiano, UM, Minneapolis, MN [34]; and 323610-3, malignant melanoma cell line, provided by Dr. Michael Kent, UCD, Davis, CA [35]. All cell lines were cultured in complete RPMI media containing 10% FBS, antibiotic/antimycotic, HEPES, sodium pyruvate, nonessential amino acids and Glutamax (media supplements from Gibco).
Cell viability for lymphoid lines was determined by the MTS (3-(4, 5-dimethylthiazol-2-yl)-5-(3-carboxymethoxyphenyl)-2-(4-sulfophenyl)-2H-tetrazolium) assay using CellTiter 96® AQueous One Solution Cell Proliferation Assay Kit (Promega, Madison, WI). Briefly, for lymphoid cell lines, 5×10^4 cells (or 1×10^5 primary DLBCL cells) were cultured in 100 µL of complete medium in 96-well plates in the presence of SINE compounds. After 72 hours, 20 µL of MTS solution was added to each well and cells were incubated for another 4 hours before measuring absorbance at 490 nm using a Wallac Victor 1420 Multilabel Counter (Perkin Elmer, Waltham, MA). The IC50 of SINE was calculated using Prism 6 software (GraphPad Software, Inc., La Jolla, CA).

The subject of data set [3] is XPO1. As to the kind of experiment: XPO1 inhibition activity. It counts as biochemical.
Data set [4] is described as follows: Oral bioavailability. The note with it: in vivo, po. In kind it is in vivo.
The test system of data set [5] is OCI-Ly3 DLBCL cells. Put plainly: MTS cell viability assay, OCI-Ly3. It counts as cell-based, human. The conditions noted are these: 72 hours, read-out: IC50 (± S.D.), OCI-Ly3. On the procedure: (§2) Cryopreserved tumor cells obtained from sterile lymph node biopsy samples from dogs with diffuse large B cell lymphoma (DLBCL) were cultured with 100 ng/mL of megaCD40L (Enzo Life Science, Plymouth Meeting, PA) as previously described, [27]. The human T-cell leukemia cell line, Jurkat, was from the American Type Culture Collection (ATCC, Manassas, VA) and cultured in RPMI1640 medium (Gibco/BRL, Grand Island, NY) containing 10% fetal bovine serum (FBS; Atlas Biologicals, Fort Collins, CO), 2-mercaptoethanol (Gibco/BRL), HEPES, L-glutamine, sodium pyruvate (Mediatech Inc., Manassas, VA), non-essential amino acids (Sigma Aldrich, St. Louis, MO), and Primocin (Invivogen, San Diego, CA). […]
as §1

The test system of data set [6] is OCI-Ly10 DLBCL cells. As to the kind of experiment: MTS cell viability assay, OCI-Ly10. It counts as cell-based, human. The conditions noted are these: 72 hours, read-out: IC50 (± S.D.), OCI-Ly10. On the procedure:
as §2, §1

The mark [7] stands for this setting: primary sample #5, 72 hours, read-out: IC50, DLBCL#5.

The structures appear in SMILES notation. Read-outs that look alike come from different tables or passages of the source.

For `COc1cc(-c2ncn(/C=C/C(=O)OC(C)C)n2)cc(C(F)(F)F)c1` [KPT-185 trans], the IC50 in data set [1] and in data set [2] (setting [7]) was > 1000 nM in each case. Besides, the “XPO1 inhibition activity, fold less than the cis-isomer” value in data set [3] is reported as ~100 fold.

Regarding `COc1cc(-c2ncn(/C=C\C(=O)OC(C)C)n2)cc(C(F)(F)F)c1` [KPT-185], the IC50 (usually the concentration that inhibits the measured activity by half) in data set [1] was found to be 8.7 ± 0.7 nM; in data set [5], 24.1 nM; in data set [6], 246 nM; in data set [2] (mean of primary canine DLBCL samples (n = 6), 72 hours, read-out: IC50 (± S.D.), Canine DLBCLs), 13.3 ± 6.2 nM; in data set [2] (primary sample #1, 72 hours, read-out: IC50, DLBCL#1), 13.1 nM; in data set [2] (primary sample #2, 72 hours, read-out: IC50, DLBCL#2), 9 nM. Besides, the IC50 in data set [2] (primary sample #3, 72 hours, read-out: IC50, DLBCL#3) was found to be 12.2 nM; in data set [2] (primary sample #4, 72 hours, read-out: IC50, DLBCL#4), 4.9 nM; in data set [2] (setting [7]), 21.6 nM. The oral bioavailability result in data set [4] is recorded as “limited oral bioavailability”.

(Values after paper PMC3913620, “Preclinical Evaluation of the Novel, Orally Bioavailable Selective Inhibitor of Nuclear Export (SINE) KPT-335 in Spontaneous Canine Cancer: Results of a Phase I Study” (PLoS ONE, 2014).)
